From ChEMBL document CHEMBL6114963, “Discovery and preclinical evaluations of drug candidate DA-0157 capable of overcoming EGFR drug-resistant mutation C797S and EGFR/ALK co-mutations” (Eur J Med Chem, 2025) come the findings set out here.

Data set [1] concerns BaF3. Description: Antitumor activity against mouse BaF3 cells harbouring EML-4-ALK-L1196M mutant allografted in female BALB/c nude mouse assessed as tumor growth inhibition at 20 mg/kg, po administered once daily for 11 days by vernier caliper based analysis relative to control. Type of data set: functional. Particulars: BaF3, 264 h, time 11 day, read-out: TGI.
The next data set relates to PC-9. The data set is described as follows: Antiproliferative activity against human PC-9 cells harbouring EGFR del19/T790M/C797S mutant assessed as inhibition of cell growth incubated for 72 hrs by CellTiter-Glo Luminescent Cell Viability Assay. The data set is classed as functional, cell-based. To be noted: PC-9, 72 h.
Data set [2] has as its system BaF3. The data set is described as follows: Antiproliferative activity against mouse BaF3 cells harboring wild-type EGFR assessed as inhibition of cell growth incubated for 72 hrs by CellTiter-Glo assay. Particulars: BaF3, 72 h. Type of data set: functional, cell-based.
In another data set the test system is A-431. The data set is described as follows: Antiproliferative activity against human A-431 cells harbouring wild-type EGFR assessed as inhibition of cell growth incubated for 72 hrs by CellTiter-Glo Luminescent Cell Viability Assay. To be noted: A-431, 72 h. Type of data set: functional, cell-based.
The subject of data set [3] is BaF3. The data set is described as follows: Antiproliferative activity against mouse BaF3 cells harboring EGFR Del19/T790M/C797S mutant assessed as inhibition of cell growth incubated for 72 hrs by CellTiter-Glo assay. Type of data set: functional, cell-based. Particulars: BaF3, 72 h. (ATP-based viability assays read luminescence as a measure of living cells.)
A short description of data set [4]: Antiproliferative activity against human NCI-H1975 cells harbouring EGFR del19/T790M/C797S mutant assessed as inhibition of cell growth incubated for 72 hrs by CellTiter-Glo Luminescent Cell Viability Assay. The data set is classed as functional, cell-based. Particulars: NCI-H1975, 72 h.
The nature of data set [5]: Potency index, ratio of Brigatinib IC50 to test compound IC50 for antiproliferative activity against mouse BaF3 cells harboring EGFR Del19/T790M/C797S mutant assessed as inhibition of cell growth incubated for 72 hrs by CellTiter-Glo assay. Type of data set: functional.
In data set [6] the test system is BaF3. The data set is described as follows: Antiproliferative activity against mouse BaF3 cells harboring EML4-ALK assessed as inhibition of cell growth incubated for 72 hrs by CellTiter-Glo assay. To be noted: BaF3, 72 h. Type of data set: functional, cell-based.
Data set [7] deals with BaF3. The data set is described as follows: Antiproliferative activity against mouse BaF3 cells harboring EML4-ALK-L1196M mutant assessed as inhibition of cell growth incubated for 72 hrs by CellTiter-Glo assay. To be noted: BaF3, 72 h. The data set is classed as functional, cell-based.
Data set [8] can be described thus: Potency index, ratio of Brigatinib IC50 to test compound IC50 for antiproliferative activity against mouse BaF3 cells harboring EML4-ALK-L1196M mutant assessed as inhibition of cell growth incubated for 72 hrs by CellTiter-Glo assay. The data set is classed as functional.
A short description of data set [9]: Antitumor activity against patient derived LU2445 lung cancer cells harbouring EML4-ALK model assessed as tumor growth inhibition po dose administered for 25 days by vernier caliper based analysis relative to control. Type of data set: functional, Homo sapiens. To be noted: time 25 day.
The test system of a further data set is NCI-H3122. The data set is described as follows: Antiproliferative activity against human NCI-H3122 cells harbouring EML4-ALK assessed as inhibition of cell growth incubated for 72 hrs by CellTiter-Glo Luminescent Cell Viability Assay. The data set is classed as functional, cell-based. Particulars: NCI-H3122, 72 h.
The test system of data set [10] is BaF3. The data set is described as follows: Antitumor activity against mouse BaF3 cells harbouring EML-4-ALK-L1196M mutant allografted in female BALB/c nude mouse assessed as tumor growth inhibition at 100 mg/kg, po administered once daily for 11 days by vernier caliper based analysis relative to control. Type of data set: functional, organism-based. To be noted: time 11.0 day.

Data set [11] concerns BaF3. The data set is described as follows: Antiproliferative activity against mouse BaF3 cells harbouring EML4-ALK-C1156Y mutant assessed as inhibition of cell growth incubated for 72 hrs by CellTiter-Glo Luminescent Cell Viability Assay. To be noted: BaF3, 72 h. The data set is classed as functional, cell-based.
Data set [12] has as its system BaF3. The data set is described as follows: Antitumor activity against mouse BaF3 cells harbouring EML-4-ALK-L1196M mutant allografted in female BALB/c nude mouse assessed as tumor growth inhibition at 46 mg/kg, po administered once daily for 11 days by vernier caliper based analysis relative to control. The data set is classed as functional. To be noted: BaF3, 264 h, time 11 day, read-out: TGI.

Data set [13] relates to BaF3. Description: Antitumor activity against mouse BaF3 cells harbouring EML-4-ALK-L1196M mutant allografted in female BALB/c nude mouse assessed as tumor growth inhibition at 25 mg/kg, po administered once daily for 11 days by vernier caliper based analysis relative to control. Type of data set: functional. To be noted: BaF3, 264 h, time 11 day, read-out: TGI.
Data set [14] in a line: Toxicity in male Sprague-Dawley rat assessed as animal death at 200 mg/kg, po administered for 14 days. Type of data set: organism-based. To be noted: in vivo, 336 h, time 14 day.
The nature of data set [15]: Toxicity in female Sprague-Dawley rat assessed as animal death at 75 mg/kg, po administered for 14 days. Type of data set: organism-based. To be noted: in vivo, 336 h, time 14 day.
Data set [16] is described as follows: Toxicity in Sprague-Dawley rat blood assessed as adverse effect at 17.5 mg/kg, po administered once daily for 7 days. Particulars: in vivo, 168 h, time 7 day. The data set is classed as organism-based.
Data set [17] in a line: Cmax in male Sprague-Dawley rat plasma at 10 mg/kg, po measured upto 72 hrs. Type of data set: ADME, organism-based.
Data set [18] can be described thus: AUC (0 to infinity) in male Sprague-Dawley rat plasma at 10 mg/kg, po measured upto 72 hrs. Type of data set: ADME, organism-based.
Data set [19] in a line: Tmax in male Sprague-Dawley rat plasma at 10 mg/kg, po measured upto 72 hrs. Type of data set: ADME, organism-based.
Data set [20] concerns BaF3. The data set is described as follows: Antitumor activity against mouse BaF3 cells harbouring EML-4-ALK-L1196M mutant allografted in female BALB/c nude mouse assessed as tumor growth inhibition at 37 mg/kg, po administered once daily for 11 days by vernier caliper based analysis relative to control. Type of data set: functional. To be noted: BaF3, 264 h, time 11 day, read-out: TGI.

Data set [21] in a line: Half life in male Sprague-Dawley rat plasma at 10 mg/kg, po measured upto 72 hrs. Type of data set: ADME, organism-based.
Data set [22] is described as follows: Toxicity in male Sprague-Dawley rat assessed as animal death at 75 mg/kg, po administered for 14 days. To be noted: in vivo, 336 h, time 14 day. Type of data set: organism-based.
A short description of data set [23]: Toxicity in Sprague-Dawley rat assessed as maximum tolerated dose administered as single po dose measured for 14 days. Type of data set: organism-based. Particulars: in vivo, time 14 day.
The nature of data set [24]: MRT (0 to infinity) in male Sprague-Dawley rat plasma at 10 mg/kg, po measured upto 72 hrs. Type of data set: ADME, organism-based.
Data set [25] can be described thus: Toxicity in female Sprague-Dawley rat assessed as animal death at 125 mg/kg, po administered for 14 days. The data set is classed as organism-based. To be noted: in vivo, 336 h, time 14 day.
Data set [26] in a line: Toxicity in male Sprague-Dawley rat assessed as animal death at 125 mg/kg, po administered for 14 days. Type of data set: organism-based. Particulars: in vivo, 336 h, time 14 day.
Data set [27] is described as follows: Toxicity in female Sprague-Dawley rat assessed as animal death at 200 mg/kg, po administered for 14 days. Type of data set: organism-based. Particulars: in vivo, 336 h, time 14 day.

For `CCc1cc2c(cc1N1CCC(N3CCOCC3)CC1)C(C)(C)c1[nH]c3cc(C#N)ccc3c1C2=O` [ALECTINIB], the inhibition in vivo at 20 mg/kg with BaF3 [1] was determined as 87.4%.

In the case of `C=CC(=O)Nc1cc(Nc2nccc(-c3cn(C)c4ccccc34)n2)c(OC)cc1N(C)CCN(C)C` [OSIMERTINIB], the 50% inhibitory concentration (IC50) with PC-9 turned out to be 2850 nM; with BaF3 [2], 75 nM; in the data set with A-431, […]; in the data set on BaF3 [3] it was 790 nM; in [4], 3360 nM.

On to `COc1cc(N2CCC(N3CCN(C)CC3)CC2)c(C)cc1Nc1ncc(Cl)c(Nc2ccccc2P(C)(C)=O)n1`, for which the IC50 in the data set on BaF3 [2] is 820 nM; in the data set on BaF3 [3], 26 nM; in the data set with BaF3 [6], 7 nM; in the data set with BaF3 [7], 18 nM. In addition, the Ratio in data set [5] is listed as 7.

For `COc1cc(N2CCC(N3CCN(C)CC3)CC2)c(C)cc1Nc1ncc(Br)c(Nc2ccc(Cl)cc2P(C)(C)=O)n1`, the IC50 was found to be 1030 nM in the data set with BaF3 [2], 5 nM with BaF3 [3], 12 nM with BaF3 [6] and 25 nM in the data set with BaF3 [7].

Regarding `COc1cc(N2CCC(N3CCN(C)CC3)CC2)ccc1Nc1ncc(Cl)c(Nc2ccc(C)cc2P(C)(C)=O)n1`, the IC50 in the data set on BaF3 [2] worked out at 1780 nM; in the data set with BaF3 [3], 190 nM; with BaF3 [6], 7 nM; in the data set with BaF3 [7], 16 nM.

For the compound `C#Cc1cccc(Nc2ncnc3cc(OCCOC)c(OCCOC)cc23)c1` [ERLOTINIB], the IC50 is 9510 nM in the data set on PC-9, 650 nM in the data set on A-431 and 4930 nM in data set [4].

For the compound `COc1cc(N2CCC(N3CCN(C)CC3)CC2)c(C)cc1Nc1ncc(Cl)c(Nc2ccc(C)cc2P(C)(C)=O)n1`, the IC50 in the data set on BaF3 [2] was 690 nM; with BaF3 [3], 22 nM; with BaF3 [6] it was 14 nM; with BaF3 [7], 29 nM. The Ratio in data set [5] and in data set [8] was 8 throughout.

Take `COc1cc(N2CCC(N3CCN(C)CC3)CC2)c(Cl)cc1Nc1ncc(Br)c(Nc2ccc(C)cc2P(C)(C)=O)n1`: the IC50 in the data set on BaF3 [2] is 600 nM; in the data set on BaF3 [3], 19 nM; in the data set with BaF3 [6], 7 nM; in the data set with BaF3 [7], 13 nM.

For the compound `C[C@@H](Oc1cc(-c2cnn(C3CCNCC3)c2)cnc1N)c1c(Cl)ccc(F)c1Cl` [CRIZOTINIB], the TGI in data set [9] is 18%; in the data set with BaF3 [10], “No effect”. In addition, the IC50 with NCI-H3122 turned out to be 120 nM; in the data set with BaF3 [6], 20 nM; with BaF3 [11], […]; with BaF3 [7] it was 160 nM.

For the compound `COc1cc(N2CCC(N3CCN(C)CC3)CC2)c(C)cc1Nc1ncc(Br)c(Nc2ccc(F)cc2P(C)(C)=O)n1`, the IC50 in the data set with BaF3 [2] was 1080 nM; with BaF3 [3], 19 nM; in the data set with BaF3 [6] it was 9 nM; with BaF3 [7] it was 17 nM.

Consider `C[C@H]1Oc2cc(cnc2N)-c2c(nn(C)c2C#N)CN(C)C(=O)c2ccc(F)cc21` [LORLATINIB], for which the inhibition in vivo at 20 mg/kg in the data set on BaF3 [1] was 129%.

On to `C[C@@H]1CN(C(=O)c2ccc(NC(=O)c3cc(O[C@H](C)c4c(Cl)ccc(F)c4Cl)c(N)nn3)cc2)C[C@H](C)N1` [ENSARTINIB], for which the inhibition in vivo at 46 mg/kg in the data set with BaF3 [12] is -32.4%.

For `Cc1cc(Nc2ncc(Cl)c(Nc3ccccc3S(=O)(=O)C(C)C)n2)c(OC(C)C)cc1C1CCNCC1` [CERITINIB], the inhibition in vivo at 25 mg/kg in the data set with BaF3 [13] was -3.8%.

Turning to `COc1cc(N2CCC(N3CCN(C)CC3)CC2)ccc1Nc1ncc(Cl)c(Nc2ccccc2P(C)(C)=O)n1` [BRIGATINIB], the half-maximal inhibitory concentration (IC50) amounted to 1650 nM in the data set with BaF3 [2]; 14 nM in the data set with NCI-H3122; 180 nM in the data set with BaF3 [3]; 4 nM with BaF3 [6]; 190 nM in the data set on BaF3 [11]; 10 nM in the data set on BaF3 [7]. Also, the Activity entry in data set [14], in data set [15], in data set [16], in data set [22], in data set [25] and in [26] was “Toxic” each time. The Activity result in data set [27] is on record as “Toxic”. The same compound yielded a peak concentration (Cmax) in data set [17] of 1930 ng/mL. In addition, the AUC(0-inf) in data set [18] was determined as 21600 ng·h/mL. In addition, in data set [19], the Tmax is 3 h. Further, the inhibition in vivo at 37 mg/kg with BaF3 [20] amounted to 94.8%. This compound also had a half-life in data set [21] of 18.6 h. Further, the maximum tolerated dose (MTD) at 336 h in data set [23] came to 75 mg/kg. The compound further registered an MRT inf in [24] of 9.7 h.

One may read the IC50 as the concentration that inhibits the measured activity by half. By Cmax is commonly meant the peak of the concentration-time curve. Broadly, the AUC(0-inf) is the area under the concentration-time curve extrapolated to infinity. Read a high AUC(0-inf) as more exposure. As a reminder, the Tmax is the time at which the peak concentration occurs. As a reminder, the half-life is the time needed for the level to fall by half in the phase considered. By MTD is commonly meant the largest dose that counted as tolerated. The MRT inf is a mean duration of stay, worked out from the concentration-time curve.
